Data set [1] is described as follows: Circular dichroism over incubation. The class given is physicochemical. The note with it: 1.0 mg/mL in PBS pH 7.4, 37 °C with agitation, up to 14 days; centrifuged clear solution, far-UV 195-250 nm. On the procedure: Circular dichroism spectra were recorded on a Jasco J-815 spectropolarimeter (Jasco, Victoria, BC, Canada). Far-UV spectra (195–250 nm) were registered for all peptides dissolved in PBS pH 7.4 at a concentration of 1.0 mg/mL and incubated at 37 °C with agitation. Spectra were recorded before and after 1,2, 3, 7, 10 and 14 days of incubation. All spectra were corrected for the buffer signal. The CD spectra were recorded three times, using a 0.2 mm cell.
(Circular dichroism is widely used to follow secondary structure.)

The nature of data set [2]: Peptide stability in human plasma (TCA assay). The class given is in vitro ADME. Conditions: human plasma (EDTA), 37 °C, 300 rpm, TCA 3% precipitation, RP-HPLC UV 223 nm, peak area relative to 0 min, at least triplicates, read-out: peptide loss in human plasma relative to the initial concentration. Here is the method: Peptide stability tests were performed according to a TCA stability assay based on the method used by Nguyen et al.. Peptides were dissolved in water, mixed with human plasma* to a final concentration of 1.0 mg/mL, and incubated at 37 °C with agitation (300 rpm, Thermomixer, Eppendorf AG, Hamburg, Germany). After 0, 1, 2, 3, 6 and 24 h, 80 μL of the solution was taken and mixed with 15% TCA to obtain a final concentration of 3% (v/v). The samples were incubated in ice for 10 min and centrifuged for 10 min (12,000 rpm, Microfuge 16, Beckman Coulter, Brea, CA, USA). Supernatants were analyzed by RP-HPLC on column using a linear gradient of acetonitrile (5–100% over 15 min) with detection at 223 nm. Peptides were quantified by their peak areas relative to the initial peak areas (0 min). All stability tests were performed at least in triplicates. As control samples peptides dissolved only in water under the same conditions were used. To additionally assess the changes in the incubated samples (peptide degradation) mass spectrometry analysis was used. LC-MS experiments were performed using ESI-IT-TOF (Shimadzu, Kyoto, Japan).
* Blood was collected from healthy anonymous donors and EDTA was then used as an anticoagulant. The procedure was approved by the Independent Bioethics Commission for Research of the Medical University of Gdańsk (NKBBN/387/2014).

The subject of data set [3] is dorsal skin wounds. As to the kind of experiment: Histological analysis of healed skin (Masson's trichrome). Conditions: skin sampled day 18 after injury. The class given is in vivo, BALB/c female mice. On the procedure:
Mice were euthanized on day 18 after the injury. Skin from their backs was sampled and stored in formalin. Samples were then embedded in paraffin, cut into 5 µm sections and stained with Masson’s trichrome staining (light green for control and FC-GHK samples and aniline blue for the FC peptide and both fibrillated peptides). Stained sections were evaluated using a light microscope.

The test system of data set [4] is dorsal skin wounds. As to the kind of experiment: Wound healing in a dorsal skin excision model in mice. The format is in vivo, BALB/c female mice. The source says:
Eight-week-old BALB/c female mice were used for experiments. All experimental procedures were approved by the Local Ethics Committee in Bydgoszcz (Approval No. 49/2016). The mice were anesthetized with inhaled 2–5% isoflurane. The skin on the back was shaved and disinfected. The skin was folded and raised cranially and caudally along the spine. The mouse was then placed in a lateral position, and the folded skin was pierced with a 6.0 mm diameter biopsy punch, resulting in the formation of two excisional, symmetrical wounds on the back of the mouse. Before peptides administration, mice were randomly divided into treatment and control groups comprising six individuals. A total of 10 µL of 1 mg/mL peptide solution suspended in saline or fibrils solution suspended in PBS at the same concentration, was applied to each wound. Control groups received saline only. The wounds were covered with transparent Tegaderm film and an adhesive plaster was wrapped around the mouse torso. During the first week of the experiment, the wounds were treated with the peptide daily for five consecutive days along with replacement of the dressing. During the second week of the experiment, the dressing was replaced every other day with no further stimulation. For fibrils the solution was administered once after wounding and the dressing was replaced every two days. At the beginning of the third week, the dressing was removed. To measure the wound area, a ruler was placed next to the injury site, and the wound was photographed. Wound areas were calculated using ImageJ software.

A further data set deals with 46BR.1N fibroblasts. Description: XTT proliferation assay, fibroblasts. The class given is cell-based, human. The note with it: for increase in proliferation by fibrils compared to control (XTT): fibrillated form, 10 µL of fibrils (50 µg/mL), 48 h, three independent experiments; for stimulation of proliferation (XTT), in words / inhibition of proliferation (XTT), in words: non-fibrillated peptide, 48 and 72 h; for inhibition of proliferation (XTT), in words: up to 25 µg/mL. On the procedure:
Immortalized human HaCaT [69, 70] keratinocytes (DKFZ, Heidelberg, Germany) and the human dermal fibroblast cell line 46BR.1N (ECACC, Sigma Aldrich, St. Louis, MO, USA) were used in the study. Cells were routinely grown in culture flasks (growth surface area 25 cm^2) in Dulbecco’s modified Eagle medium (DMEM, Sigma Aldrich, St. Louis, MO, USA), with 4500 mg/L of glucose, 584 mg/L of L-glutamine, sodium pyruvate, and sodium bicarbonate, supplemented with 10% FBS and 100 units/mL of penicillin and 100 μg/mL of streptomycin (Sigma Aldrich, St. Louis, MO, USA), under a humidified atmosphere with 5% CO2 at 37 °C. Medium was changed every 2–3 days.
Lactate dehydrogenase (LDH) activity in cell culture supernatants (Takara, Japan, cat. No. MK401) was measured to determine the cytotoxicity of the tested compounds, and the XTT assay was used to evaluate their effect on cell proliferation. Both tests were performed as previously described according to manufacturers’ instructions. Briefly, cells were seeded into 96-well plates, at a density of 5000 cells per well, in DMEM supplemented with 10% FBS. After 24 h the medium was exchanged for serum-free DMEM containing appropriate concentrations of the tested compounds. Supernatants for LDH analysis were collected after 48 h of incubation. The XTT assay was performed after 48 and 72 h of incubation.
For the analysis of the effect of the peptide fibrils on skin cells, the experiment was performed as described, but the cells were stimulated with 10 µL of the fibrils (50 µg/mL) and incubated for 48 h, when the LDH and XTT assay were then performed.
(In general: Formazan colour is commonly taken as a measure of viable cells.)

The mark [5] stands for this setting: non-fibrillated peptide, 1 mg/mL in saline, five daily applications.

Where a SMILES comes first, the peptide text is derived from it.

From article PMC8067766 (International Journal of Molecular Sciences, 2021) come the findings set out here.

Regarding `CC[C@H](C)[C@H](NC(=O)CNC(=O)[C@H](C)NC(=O)[C@H](CCC(N)=O)NC(=O)CNC(=O)CNC(=O)CNC(=O)[C@@H](NC(=O)[C@@H]1CCCN1C(=O)[C@H](C)NC(=O)[C@H](C)NC(=O)CNC(=O)CNC(=O)CNC(=O)[C@H](CCCCN)NC(=O)[C@H](Cc1c[nH]cn1)NC(=O)CNC(C)=O)C(C)C)C(=O)N[C@H](C(=O)N[C@H](C(N)=O)C(C)C)C(C)C` [FC-GHK] (Ac-GHKGGGAAPVGGGQAGIVV-NH2), the “secondary structure by CD” value in data set [1] is “disordered structure”. Also, in data set [2], the metabolised at 24 h, 1 mg/mL was 20%. For the same compound, the “muscle cell growth in wound area (histology)” value in the data set on dorsal skin wounds [3] (fibrillated peptide) is “No such cell growth was present”. The “muscle cell layer in restored tissue (histology)” value with dorsal skin wounds [3] (non-fibrillated peptide) is listed as “modest reconstruction of the muscle cell layer”. For the same compound, the “wound closure rate compared to control” value in the data set with dorsal skin wounds [4] (fibrillated peptide, 10 µL of 1 mg/mL in PBS per wound, administered once, n = 16 wounds) is recorded as “the difference in wound closure rate could be observed on day 4 post-injury without statistical significance”. In the data set with dorsal skin wounds [4] (setting [5]), the “wound closure and scars of FC-GHK compared with FC and control” value was “faster wound closure than for the FC peptide and significantly smaller scars compared to the control group”; the “wound epithelialization compared with the control” value is reported as “increased epithelialization on the second day”; the “wound state on day 14 post-injury” value was “closed entirely”. Also, in the data set on dorsal skin wounds [4] (non-fibrillated peptide, 10 µL of 1 mg/mL in saline per wound, five daily applications, n = 12 wounds), the “wound closure compared to the control group” value was “significantly and consistently accelerated from day 2 till day 14”. Moreover, in the data set with 46BR.1N fibroblasts, the “increase in proliferation by fibrils compared to control (XTT)” value was “about 10%”; the “stimulation of proliferation (XTT), in words” value is “stimulated proliferation of both tested cell lines at concentrations of 0.01–10 µg/L”; the “inhibition of proliferation (XTT), in words” value is “slight inhibition of the proliferation of skin cells after 72 h stimulation”.

For `CC[C@H](C)[C@H](NC(=O)CNC(=O)[C@H](C)NC(=O)[C@H](CCC(N)=O)NC(=O)CNC(=O)CNC(=O)CNC(=O)[C@@H](NC(=O)[C@@H]1CCCN1C(=O)[C@H](C)NC(=O)[C@H](C)NC(=O)CNC(=O)CNC(=O)CNC(=O)[C@H](CCCCN)NC(=O)[C@H](Cc1c[nH]cn1)NC(=O)CNC(=O)[C@H](CCCCN)NC(C)=O)C(C)C)C(=O)N[C@H](C(=O)N[C@H](C(N)=O)C(C)C)C(C)C` [FC-KGHK] (Ac-KGHKGGGAAPVGGGQAGIVV-NH2), in data set [1], the “secondary structure by CD” value is “disordered structure”. Besides, the metabolised at 24 h, 1 mg/mL in data set [2] is 20%. In the data set with 46BR.1N fibroblasts, the “increase in proliferation by fibrils compared to control (XTT)” value is listed as approximately 20%; the “stimulation of proliferation (XTT), in words” value is “strongest stimulation was observed for 46BR.1N fibroblasts in concentrations of 0.1–10 µg/mL after 72 h of incubation”; the “inhibition of proliferation (XTT), in words” value is given as “did not inhibit the proliferation of skin cells”.
